What was measured:
Ba/F3-c-KIT(D816V) = test: Proliferation inhibitory activity on Ba/F3 cell (CellTiter-Glo, 72 hours), c-KIT(D816V); type: cell-based; conditions: Mus musculus, BaF3, read-out: Ba/F3 (nM) c-KIT (D816V) (GI50 class)
Protocol: (§1) Ba/F3-TEL-PDGFRα(WT), Ba/F3-TEL-PDGFβ(WT), Ba/F3-c-KIT(D816V) (Kyinno, #KC-0138), c-KIT V560G/D816V, c-KIT D814Y were seeded at 3×10^3/100 μl/well in a clear bottom white 96-well plate. A culture solution containing compounds of 12 concentrations (0.00001-2 mM) serially diluted in 3 folds and the DMSO control group was added at 0.5 μl/well each to a final concentration of 0.00005-10 μM, and then incubated in a CO2 incubator at 37° C. for 72 hours. After 72 hours, the plate treated with the compound was taken out, CellTiter-Glo® Assay (Promega) solution was treated with 100 μl/well, followed by mixing well. After mixing well for about 10 minutes at room temperature, […] was measured using a microplate reader. The data were presented as percentages in proportion to treated cells based on the vehicle, GI50 (nM) values were calculated using GraphPad Prism 8.3.0 (GraphPad software Inc., San Diego).
(§2) The inhibitory activities of Ba/F3 expressing PDGFR-α, PDGFR-β, c-KIT(D816V), c-KIT V560G/D816V, and c-KIT D814Y measured as described above were measured and shown in Table 7 below (A: GI50≤200 nM; B: 200 nM<GI50≤500 nM; C: GI50>500 nM).

c-KIT V560G/D816V = test: Proliferation inhibitory activity on Ba/F3 cell (CellTiter-Glo, 72 hours), c-KIT V560G/D816V; type: cell-based; conditions: Mus musculus, BaF3, c-KIT V560G/D816V cells, read-out: Cell (nM) c-KIT V560G/D816V (GI50 class)
Protocol: as §1, §2

SMILES	GI50 (Ba/F3-c-KIT(D816V)) [nM]	GI50 (c-KIT V560G/D816V) [nM]
COc1cc2c(-c3ccc(NC(=O)Cc4ccc(C(F)(F)F)cc4)cc3)ncnc2cc1OCCCCl [Example 23, N-(4-(7-(3-chloropropoxy)-6-methoxyquinazolin-4-yl)phenyl)-2-(4-(trifluoromethyl)phenyl)acetamide]	≤ 200	200 to 500
COc1cc2c(-c3ccc(NC(=O)Cn4cc(C(C)C)nn4)cc3)ncnc2cc1OCC1CCNCC1 [Example 61, 2-(4-isopropyl-1H-1,2,3-triazole-1-yl)-N-(4-(6-methoxy-7-(piperidin-4-ylmethoxy)quinazolin-4-yl)phenyl)acetamide]	> 500	
COc1cc2c(-c3ccc(NC(=O)Cn4cc(C(C)(C)C)nn4)cc3)ncnc2cc1OCC1CCNCC1 [Example 62, 2-(4-(tert-butyl)-1H-1,2,3-triazole-1-yl)-N-(4-(6-methoxy-7-(piperidin-4-ylmethoxy)quinazolin-4-yl)phenyl)acetamide]	> 500	
CCN1CCC(COc2cc3ncnc(-c4ccc(NC(=O)Cn5cc(C(C)(C)C)nn5)cc4)c3cc2OC)CC1 [Example 66, 2-(4-(tert-butyl)-1H-1,2,3-triazole-1-yl)-N-(4-(7-((1-ethylpiperidin-4-yl)methoxy)-6-methoxyquinazolin-4-yl)phenyl)acetamide]	≤ 200	
COc1cc2c(-c3ccc(NC(=O)Cn4cc(C(C)(C)C)nn4)cc3)ncnc2cc1OCCCN1CCN(C)CC1 [Example 68, 2-(4-(tert-butyl)-1H-1,2,3-triazole-1-yl)-N-(4-(6-methoxy-7-(3-(4-methylpiperazin-1-yl)propoxy)quinazolin-4-yl)phenyl)acetamide]	≤ 200	
C=CCC(=O)Nc1ccc(-c2ncnc3cc(OCCCN4CCN(C)CC4)c(OC)cc23)cc1 [Example 87, N-(4-(6-methoxy-7-(3-(4-methylpiperazin-1-yl)propoxy)quinazolin-4-yl)phenyl)but-3-enamide]	≤ 200	
COc1cc2ncnc(-c3ccc(NC(=O)Cc4ccc(C(F)(F)F)cc4)cc3)c2cc1OCCCN1CCN(C(C)=O)CC1 [Example 128, N-(4-(6-(3-(4-acetylpiperazin-1-yl)propoxy)-7-methoxyquinazolin-4-yl)phenyl)-2-(4-(trifluoromethyl)phenyl)acetamide]	≤ 200	
COc1cc2ncnc(-c3ccc(NC(=O)Cc4ccc(C(F)(F)F)cc4)cc3)c2cc1OC1CCN(C(=O)OC(C)(C)C)C1 (stereo not shown) [Example 136, tert-butyl 3-((7-methoxy-4-(4-(2-(4-(trifluoromethyl)phenyl)acetamido)phenyl)quinazolin-6-yl)oxy)pyrrolidin-1-carboxylate]	≤ 200	
COc1cc2ncnc(-c3ccc(NC(=O)Cc4ccc(C(F)(F)F)cc4)cc3)c2cc1OC1COC1 [Example 153, N-(4-(7-methoxy-6-(oxetan-3-yloxy)quinazolin-4-yl)phenyl)-2-(4-(trifluoromethyl)phenyl)acetamide]	≤ 200	
COc1cc2ncnc(-c3ccc(NC(=O)Cc4ccc(C(F)(F)F)cc4)cc3)c2cc1OCCCNC1CC1 [Example 154, N-(4-(6-(3-(cyclopropylamino)propoxy)-7-methoxyquinazolin-4-yl)phenyl)-2-(4-(trifluoromethyl)phenyl)acetamide]	≤ 200	

The remaining lines, values ahead:

GI50 (Ba/F3-c-KIT(D816V)) [nM]	GI50 (c-KIT V560G/D816V) [nM]	SMILES
≤ 200	> 500	COc1cc2c(-c3ccc(NC(=O)Cc4ccc(C(F)(F)F)cc4)cc3)ncnc2cc1OC1CNC1 [Example 24, N-(4-(7-(azetidine-3-yloxy)-6-methoxyquinazolin-4-yl)phenyl)-2-(4-(trifluoromethyl)phenyl)acetamide]
≤ 200	≤ 200	COc1cc2c(-c3ccc(NC(=O)Cc4ccc(C(F)(F)F)cc4)cc3)ncnc2cc1OCCCNC1CC1 [Example 25, N-(4-(7-(3-(cyclopropylamino)propoxy)-6-methoxyquinazolin-4-yl)phenyl)-2-(4-(trifluoromethyl)phenyl)acetamide]
≤ 200	> 500	COc1ccc(CN2CC(Oc3cc4ncnc(-c5ccc(NC(=O)Cc6ccc(C(F)(F)F)cc6)cc5)c4cc3OC)C2)cc1 [Example 27, N-(4-(6-methoxy-7-((1-(4-methoxybenzyl)azetidin-3-yl)oxy)quinazolin-4-yl)phenyl)-2-(4-(trifluoromethyl)phenyl)acetamide]
≤ 200	> 500	COCCN1CC(Oc2cc3ncnc(-c4ccc(NC(=O)Cc5ccc(C(F)(F)F)cc5)cc4)c3cc2OC)C1 [Example 28, N-(4-(6-methoxy-7-((1-(2-methoxyethyl)azetidin-3-yl)oxy)quinazolin-4-yl)phenyl)-2-(4-(trifluoromethyl)phenyl)acetamide]
≤ 200		CCN1CCC(COc2cc3ncnc(-c4ccc(NC(=O)Cn5cc(C(C)C)nn5)cc4)c3cc2OC)CC1 [Example 65, N-(4-(7-((1-ethylpiperidin-4-yl)methoxy)-6-methoxyquinazolin-4-yl)phenyl)-2-(4-isopropyl-1H-1,2,3-triazole-1-yl)acetamide]
≤ 200		COc1cc2c(-c3ccc(NC(=O)Cn4cc(C(C)C)nn4)cc3)ncnc2cc1OCCCN1CCN(C)CC1 [Example 67, 2-(4-isopropyl-1H-1,2,3-triazole-1-yl)-N-(4-(6-methoxy-7-(3-(4-methylpiperazin-1-yl)propoxy)quinazolin-4-yl)phenyl)acetamide]
≤ 200		COc1cc2c(-c3ccc(NC(=O)Cc4ccc(C(F)(F)F)c(F)c4)cc3)ncnc2cc1OCC1CCNCC1 [Example 79, 2-(3-fluoro-4-(trifluoromethyl)phenyl)-N-(4-(6-methoxy-7-(piperidin-4-ylmethoxy)quinazolin-4-yl)phenyl)acetamide]
> 500		COc1cc2c(-c3ccc(NC(=O)CC4CCNCC4)cc3)ncnc2cc1OCCCN1CCN(C)CC1 [Example 86, N-(4-(6-methoxy-7-(3-(4-methylpiperazin-1-yl)propoxy)quinazolin-4-yl)phenyl)-2-(piperidin-4-yl)acetamide]
200 to 500		COc1cc2ncnc(-c3ccc(NC(=O)Cc4ccc(C(F)(F)F)cc4)cc3)c2cc1OC1CN(C(=O)OC(C)(C)C)C1 [Example 135, tert-butyl 3-((7-methoxy-4-(4-(2-(4-(trifluoromethyl)phenyl)acetamido)phenyl)quinazolin-6-yl)oxy)azetidin-1-carboxylate]
> 500		COc1cc2ncnc(-c3ccc(NC(=O)Cc4ccc(C(F)(F)F)cc4)cc3)c2cc1OCC1CCNCC1 [Example 146, N-(4-(7-methoxy-6-(piperidin-4-ylmethoxy)quinazolin-4-yl)phenyl)-2-(4-(trifluoromethyl)phenyl)acetamide]
> 500		COc1cc2ncnc(-c3ccc(NC(=O)Cc4ccc(C(F)(F)F)cc4)cc3)c2cc1OCCCN1CC2(CNC2)C1 [Example 148, N-(4-(6-(3-(2,6-diazaspiro[3.3]heptane-2-yl)propoxy)-7-methoxyquinazolin-4-yl)phenyl)-2-(4-(trifluoromethyl)phenyl)acetamide]
≤ 200		COc1cc2ncnc(-c3ccc(NC(=O)Cc4ccc(C(F)(F)F)cc4)cc3)c2cc1OCCCN1CC(N(C)C)C1 [Example 152, N-(4-(6-(3-(3-(dimethylamino)azetidin-1-yl)propoxy)-7-methoxyquinazolin-4-yl)phenyl)-2-(4-(trifluoromethyl)phenyl)acetamide]
≤ 200		COc1cc2ncnc(-c3ccc(NC(=O)Cc4ccc(C(F)(F)F)cc4)cc3)c2cc1OCCCNc1cnn(C)c1 [Example 155, N-(4-(7-methoxy-6-(3-((1-methyl-1H-pyrazol-4-yl)amino)propoxy)quinazolin-4-yl)phenyl)-2-(4-(trifluoromethyl)phenyl)acetamide]

From patent publication US20260138959A1, “QUINAZOLINE DERIVATIVE COMPOUND AND USE THEREOF” (VORONOI INC., priority 2021, published 2026)
